In ChEMBL document CHEMBL6182889, “Discovery of the first-in-class DOT1L PROTAC degrader” (Eur J Med Chem, 2025):
Activity calls are given as the source filed them. The rule behind the calls is not given here.

Assays:
[1] = molecular target: T1, von Hippel-Lindau disease tumor suppressor/Histone-lysine N-methyltransferase, H3 lysine-79 specific (Homo sapiens, UniProt Q8TEK3+P40337); assay: PROTAC activity at VHL/DOTIL in mixed-lineage leukemia rearranged (MLL-r) human THP-1 cells assessed as induction of DOT1L degradation by measuring fold change in DOTIL protein level at 0.3 uM incubated for 24 hrs by western blot analysis relative to control; type: cell-based
Target sequence in this assay (P40337 whole entry, looked up): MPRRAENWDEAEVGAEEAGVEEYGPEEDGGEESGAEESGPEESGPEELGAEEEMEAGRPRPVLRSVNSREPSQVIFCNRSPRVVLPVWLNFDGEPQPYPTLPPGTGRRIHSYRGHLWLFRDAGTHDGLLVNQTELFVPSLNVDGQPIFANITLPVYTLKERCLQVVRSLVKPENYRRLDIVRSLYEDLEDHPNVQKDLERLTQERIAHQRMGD
Target sequence in this assay (Q8TEK3 whole entry, looked up): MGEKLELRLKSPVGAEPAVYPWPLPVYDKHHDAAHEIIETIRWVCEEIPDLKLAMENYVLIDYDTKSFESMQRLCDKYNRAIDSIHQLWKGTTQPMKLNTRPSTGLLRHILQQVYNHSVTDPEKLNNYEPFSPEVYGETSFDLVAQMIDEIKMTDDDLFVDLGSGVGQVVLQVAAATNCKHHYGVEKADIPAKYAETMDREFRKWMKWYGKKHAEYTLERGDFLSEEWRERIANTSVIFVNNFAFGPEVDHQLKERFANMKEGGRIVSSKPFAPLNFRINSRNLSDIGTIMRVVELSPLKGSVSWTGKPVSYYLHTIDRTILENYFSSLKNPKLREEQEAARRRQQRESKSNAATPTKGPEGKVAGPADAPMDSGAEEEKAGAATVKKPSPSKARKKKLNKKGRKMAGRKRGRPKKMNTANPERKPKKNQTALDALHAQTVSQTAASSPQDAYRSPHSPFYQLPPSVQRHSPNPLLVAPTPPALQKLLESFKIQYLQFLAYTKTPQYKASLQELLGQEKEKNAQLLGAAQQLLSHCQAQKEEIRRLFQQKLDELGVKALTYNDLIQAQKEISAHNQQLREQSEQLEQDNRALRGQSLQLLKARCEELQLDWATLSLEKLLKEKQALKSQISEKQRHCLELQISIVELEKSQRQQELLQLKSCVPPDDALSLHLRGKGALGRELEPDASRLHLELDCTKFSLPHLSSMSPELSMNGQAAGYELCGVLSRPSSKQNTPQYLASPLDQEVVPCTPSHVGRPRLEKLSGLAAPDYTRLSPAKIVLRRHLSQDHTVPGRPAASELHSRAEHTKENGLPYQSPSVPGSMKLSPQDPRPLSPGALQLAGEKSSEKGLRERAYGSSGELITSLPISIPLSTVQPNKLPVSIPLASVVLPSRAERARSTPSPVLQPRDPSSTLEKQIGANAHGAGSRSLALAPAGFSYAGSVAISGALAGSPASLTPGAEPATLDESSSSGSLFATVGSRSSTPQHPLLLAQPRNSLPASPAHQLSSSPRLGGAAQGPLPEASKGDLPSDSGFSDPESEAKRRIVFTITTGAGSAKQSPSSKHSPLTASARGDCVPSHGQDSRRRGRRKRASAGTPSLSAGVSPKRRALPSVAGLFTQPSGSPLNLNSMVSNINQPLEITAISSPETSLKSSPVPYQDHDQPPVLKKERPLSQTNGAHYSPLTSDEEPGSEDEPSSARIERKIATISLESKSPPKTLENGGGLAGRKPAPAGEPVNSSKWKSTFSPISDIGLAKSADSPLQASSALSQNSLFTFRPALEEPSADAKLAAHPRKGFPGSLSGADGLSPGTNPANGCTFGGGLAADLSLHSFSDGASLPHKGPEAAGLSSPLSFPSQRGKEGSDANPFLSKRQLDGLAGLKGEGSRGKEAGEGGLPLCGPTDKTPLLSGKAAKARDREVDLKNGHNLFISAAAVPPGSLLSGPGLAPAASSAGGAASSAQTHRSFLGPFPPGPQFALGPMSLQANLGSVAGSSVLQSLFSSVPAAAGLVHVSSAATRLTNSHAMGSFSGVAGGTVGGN

[2] = molecular target: T1, von Hippel-Lindau disease tumor suppressor/Histone-lysine N-methyltransferase, H3 lysine-79 specific; assay: PROTAC activity at VHL/DOTIL in mixed-lineage leukemia rearranged (MLL-r) human THP-1 cells assessed as induction of DOT1L degradation by measuring reduction in DOTIL protein level at 0.3 uM incubated for 24 hrs by western blot analysis relative to control; type: cell-based; design: scale not given: the % may be the effect or the level left
Target sequence in this assay (P40337 whole entry, looked up): as the sequence (P40337 whole entry, looked up) above
Target sequence in this assay (Q8TEK3 whole entry, looked up): as the sequence (Q8TEK3 whole entry, looked up) above

[3] = molecular target: T1, von Hippel-Lindau disease tumor suppressor/Histone-lysine N-methyltransferase, H3 lysine-79 specific; assay: PROTAC activity at VHL/DOTIL in mixed-lineage leukemia rearranged (MLL-r) human THP-1 cells assessed as induction of DOT1L degradation by measuring reduction in DOTIL protein level at 3 uM incubated for 24 hrs by western blot analysis relative to control; type: cell-based; design: scale not given: the % may be the effect or the level left
Target sequence in this assay (P40337 whole entry, looked up): as the sequence (P40337 whole entry, looked up) above
Target sequence in this assay (Q8TEK3 whole entry, looked up): as the sequence (Q8TEK3 whole entry, looked up) above

[4] = molecular target: T1, von Hippel-Lindau disease tumor suppressor/Histone-lysine N-methyltransferase, H3 lysine-79 specific; assay: PROTAC activity at VHL/DOT1L in mixed-lineage leukemia rearranged (MLL-r) human THP-1 cells assessed as induction of DOT1L degradation incubated for 24 hrs by western blot analysis; type: cell-based
[5] = molecular target: T1, von Hippel-Lindau disease tumor suppressor/Histone-lysine N-methyltransferase, H3 lysine-79 specific; assay: PROTAC activity at VHL/DOT1L in mixed-lineage leukemia rearranged (MLL-r) human THP-1 cells assessed as induction of DOTIL degradation by measuring fold change in DOT1L protein level at 3 uM incubated for 2 hrs by western blot analysis relative to control; type: cell-based
Target sequence in this assay (P40337 whole entry, looked up): as the sequence (P40337 whole entry, looked up) above
Target sequence in this assay (Q8TEK3 whole entry, looked up): as the sequence (Q8TEK3 whole entry, looked up) above

[6] = molecular target: T1, von Hippel-Lindau disease tumor suppressor/Histone-lysine N-methyltransferase, H3 lysine-79 specific; assay: PROTAC activity at VHL/DOT1L in mixed-lineage leukemia rearranged (MLL-r) human THP-1 cells assessed as induction of DOTIL degradation by measuring fold change in DOT1L protein level at 3 uM incubated for 4 hrs by western blot analysis relative to control; type: cell-based
Target sequence in this assay (P40337 whole entry, looked up): as the sequence (P40337 whole entry, looked up) above
Target sequence in this assay (Q8TEK3 whole entry, looked up): as the sequence (Q8TEK3 whole entry, looked up) above

[7] = molecular target: T1, von Hippel-Lindau disease tumor suppressor/Histone-lysine N-methyltransferase, H3 lysine-79 specific; assay: PROTAC activity at VHL/DOT1L in mixed-lineage leukemia rearranged (MLL-r) human THP-1 cells assessed as induction of DOTIL degradation by measuring fold change in H3K79Me2 level at 3 uM incubated for 2 hrs by western blot analysis relative to control; type: cell-based
Target sequence in this assay (P40337 whole entry, looked up): as the sequence (P40337 whole entry, looked up) above
Target sequence in this assay (Q8TEK3 whole entry, looked up): as the sequence (Q8TEK3 whole entry, looked up) above

[8] = molecular target: T1, von Hippel-Lindau disease tumor suppressor/Histone-lysine N-methyltransferase, H3 lysine-79 specific; assay: PROTAC activity at VHL/DOT1L in mixed-lineage leukemia rearranged (MLL-r) human THP-1 cells assessed as induction of DOTIL degradation by measuring fold change in H3K79Me2 level at 3 uM incubated for 4 hrs by western blot analysis relative to control; type: cell-based
[9] = molecular target: T1, von Hippel-Lindau disease tumor suppressor/Histone-lysine N-methyltransferase, H3 lysine-79 specific; assay: PROTAC activity at VHL/DOT1L in mixed-lineage leukemia rearranged (MLL-r) human THP-1 cells assessed as induction of DOTIL degradation by measuring fold change in H3K79Me2 level at 3 uM incubated for 8 hrs by western blot analysis relative to control; type: cell-based
[10] = molecular target: T1, von Hippel-Lindau disease tumor suppressor/Histone-lysine N-methyltransferase, H3 lysine-79 specific; assay: PROTAC activity at VHL/DOT1L in mixed-lineage leukemia rearranged (MLL-r) human MV4-11 cells assessed as induction of DOTIL degradation by measuring fold change in DOT1L protein level at 3 uM incubated for 2 hrs by western blot analysis relative to control; type: cell-based
[11] = molecular target: T1, von Hippel-Lindau disease tumor suppressor/Histone-lysine N-methyltransferase, H3 lysine-79 specific; assay: PROTAC activity at VHL/DOT1L in mixed-lineage leukemia rearranged (MLL-r) human MV4-11 cells assessed as induction of DOTIL degradation by measuring fold change in DOT1L protein level at 3 uM incubated for 8 hrs by western blot analysis relative to control; type: cell-based
[12] = molecular target: T1, von Hippel-Lindau disease tumor suppressor/Histone-lysine N-methyltransferase, H3 lysine-79 specific; assay: PROTAC activity at VHL/DOT1L in mixed-lineage leukemia rearranged (MLL-r) human MV4-11 cells assessed as induction of DOTIL degradation by measuring fold change in DOT1L protein level at 3 uM incubated for 24 hrs by western blot analysis relative to control; type: cell-based
[13] = molecular target: T1, von Hippel-Lindau disease tumor suppressor/Histone-lysine N-methyltransferase, H3 lysine-79 specific; assay: PROTAC activity at VHL/DOT1L in mixed-lineage leukemia rearranged (MLL-r) human MV4-11 cells assessed as induction of DOTIL degradation by measuring fold change in H3K79Me2 level at 3 uM incubated for 1 hr by western blot analysis relative to control; type: cell-based
[14] = molecular target: T1, von Hippel-Lindau disease tumor suppressor/Histone-lysine N-methyltransferase, H3 lysine-79 specific; assay: PROTAC activity at VHL/DOT1L in mixed-lineage leukemia rearranged (MLL-r) human MV4-11 cells assessed as induction of DOTIL degradation by measuring fold change in H3K79Me2 level at 3 uM incubated for 4 hrs by western blot analysis relative to control; type: cell-based
[15] = molecular target: T1, von Hippel-Lindau disease tumor suppressor/Histone-lysine N-methyltransferase, H3 lysine-79 specific; assay: PROTAC activity against VHL/DOT1L in mixed-lineage leukemia rearranged (MLL-r) human THP-1 cells assessed as induction of DOT1L degradation at 3 uM preincubated with NAE inhibitor, MLN4924 for 1 hr followed by incubation with compound for 8 hrs by western blot analysis; type: cell-based
[16] = molecular target: T1, von Hippel-Lindau disease tumor suppressor/Histone-lysine N-methyltransferase, H3 lysine-79 specific; assay: PROTAC activity at VHL/DOT1L in mixed-lineage leukemia rearranged (MLL-r) human MOLM-13 cells assessed as induction of DOT1L degradation at 0.3 to 3 uM by western blot analysis; type: cell-based; conditions: dose 0.3-3 µM
[17] = molecular target: Histone-lysine N-methyltransferase, H3 lysine-79 specific (Homo sapiens) (UniProt Q8TEK3); assay: Inhibition of human DOT1L using oligonucleosomes and SAM as substrate at 4.6 nM by radiometric Hotspot assay
[18] = molecular target: DNA (cytosine-5)-methyltransferase 1 (Homo sapiens) (UniProt P26358); assay: Inhibition of human DNMT1 using poly(dI-dC) and SAM as substrate at 10 uM by radiometric Hotspot assay
[19] = molecular target: DNA (cytosine-5)-methyltransferase 3A (Homo sapiens) (UniProt Q9Y6K1); assay: Inhibition of human DNMT3a using lambda DNA and SAM as substrate at 10 uM by radiometric Hotspot assay
[20] = molecular target: DNA (cytosine-5)-methyltransferase 3B (Homo sapiens) (UniProt Q9UBC3); assay: Inhibition of human full length DNMT3b using lambda DNA and SAM as substrate at 10 uM by radiometric Hotspot assay
[21] = molecular target: Histone-lysine N-methyltransferase EZH2 (Homo sapiens) (UniProt Q15910); assay: Inhibition of human EZH2 using core histone and SAM as substrate at 10 uM by radiometric Hotspot assay
[22] = molecular target: Histone-lysine N-methyltransferase 2A (Homo sapiens) (UniProt Q03164); assay: Inhibition of human MLL1 using nucleosomes and SAM as substrate at 10 uM by radiometric Hotspot assay
[23] = molecular target: Protein arginine N-methyltransferase 1 (Homo sapiens) (UniProt Q99873); assay: Inhibition of human PRMT1 using histone H4 and SAM as substrate at 10 uM by radiometric Hotspot assay
[24] = molecular target: PRMT5/MEP50 complex (Homo sapiens) (UniProt O14744+Q9BQA1); assay: Inhibition of human PRMT5/MEP50 complex using histone H2A and SAM as substrate at 10 uM by radiometric Hotspot assay; type: protein-complex assay
MV4-11 = assay: Antiproliferative activity against mixed-lineage leukemia rearranged (MLL-r) human MV4-11 cells assessed as inhibition of cell growth incubated for 7 days by CCK-8 assay; type: functional; conditions: MV4-11, 168 h, time 7 day
MCF-10A = assay: Cytotoxicity against human MCF-10A cells assessed as inhibition of cell growth incubated for 7 days by CCK-8 assay; type: toxicity, cell-based; conditions: 168 h, time 7 day

Sequence of Protein arginine N-methyltransferase 1 (Homo sapiens) (Q99873 whole entry, looked up): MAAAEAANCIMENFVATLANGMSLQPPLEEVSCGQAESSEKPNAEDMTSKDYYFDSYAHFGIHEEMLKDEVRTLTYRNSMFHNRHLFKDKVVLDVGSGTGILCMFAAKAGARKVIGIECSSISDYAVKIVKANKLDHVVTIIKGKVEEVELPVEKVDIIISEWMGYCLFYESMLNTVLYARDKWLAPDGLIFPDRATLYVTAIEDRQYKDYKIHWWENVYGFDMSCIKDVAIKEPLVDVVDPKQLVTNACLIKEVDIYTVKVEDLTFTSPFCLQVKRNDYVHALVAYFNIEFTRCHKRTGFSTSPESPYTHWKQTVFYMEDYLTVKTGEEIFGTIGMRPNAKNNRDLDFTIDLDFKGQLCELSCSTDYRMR
Sequence of Histone-lysine N-methyltransferase, H3 lysine-79 specific (Homo sapiens) (Q8TEK3 whole entry, looked up): as the sequence (Q8TEK3 whole entry, looked up) above
Sequence of DNA (cytosine-5)-methyltransferase 3A (Homo sapiens) (Q9Y6K1 whole entry, looked up): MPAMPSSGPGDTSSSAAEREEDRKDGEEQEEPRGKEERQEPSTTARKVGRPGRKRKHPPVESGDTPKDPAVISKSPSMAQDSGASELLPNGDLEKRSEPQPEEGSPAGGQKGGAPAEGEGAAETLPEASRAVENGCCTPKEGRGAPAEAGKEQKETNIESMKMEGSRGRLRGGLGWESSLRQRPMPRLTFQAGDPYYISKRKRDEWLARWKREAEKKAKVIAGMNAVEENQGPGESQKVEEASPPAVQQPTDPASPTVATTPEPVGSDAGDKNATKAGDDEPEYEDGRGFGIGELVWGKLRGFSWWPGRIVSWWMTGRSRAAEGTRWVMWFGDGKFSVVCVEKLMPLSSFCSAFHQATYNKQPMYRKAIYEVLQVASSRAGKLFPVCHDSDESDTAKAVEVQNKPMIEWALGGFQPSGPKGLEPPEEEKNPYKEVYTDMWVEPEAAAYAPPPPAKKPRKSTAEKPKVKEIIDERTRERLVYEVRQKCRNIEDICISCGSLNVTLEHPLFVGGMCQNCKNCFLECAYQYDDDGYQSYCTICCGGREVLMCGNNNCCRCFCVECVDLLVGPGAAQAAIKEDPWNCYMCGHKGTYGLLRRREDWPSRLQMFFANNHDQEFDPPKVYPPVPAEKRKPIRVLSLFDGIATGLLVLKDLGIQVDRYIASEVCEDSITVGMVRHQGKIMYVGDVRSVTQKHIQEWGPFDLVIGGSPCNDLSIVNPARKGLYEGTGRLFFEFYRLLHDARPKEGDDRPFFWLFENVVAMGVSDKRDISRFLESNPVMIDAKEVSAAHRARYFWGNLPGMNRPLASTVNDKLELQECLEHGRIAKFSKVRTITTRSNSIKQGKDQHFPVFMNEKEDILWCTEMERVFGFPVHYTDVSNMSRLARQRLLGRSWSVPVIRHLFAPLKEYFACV
Sequence of Histone-lysine N-methyltransferase EZH2 (Homo sapiens) (Q15910 whole entry, looked up): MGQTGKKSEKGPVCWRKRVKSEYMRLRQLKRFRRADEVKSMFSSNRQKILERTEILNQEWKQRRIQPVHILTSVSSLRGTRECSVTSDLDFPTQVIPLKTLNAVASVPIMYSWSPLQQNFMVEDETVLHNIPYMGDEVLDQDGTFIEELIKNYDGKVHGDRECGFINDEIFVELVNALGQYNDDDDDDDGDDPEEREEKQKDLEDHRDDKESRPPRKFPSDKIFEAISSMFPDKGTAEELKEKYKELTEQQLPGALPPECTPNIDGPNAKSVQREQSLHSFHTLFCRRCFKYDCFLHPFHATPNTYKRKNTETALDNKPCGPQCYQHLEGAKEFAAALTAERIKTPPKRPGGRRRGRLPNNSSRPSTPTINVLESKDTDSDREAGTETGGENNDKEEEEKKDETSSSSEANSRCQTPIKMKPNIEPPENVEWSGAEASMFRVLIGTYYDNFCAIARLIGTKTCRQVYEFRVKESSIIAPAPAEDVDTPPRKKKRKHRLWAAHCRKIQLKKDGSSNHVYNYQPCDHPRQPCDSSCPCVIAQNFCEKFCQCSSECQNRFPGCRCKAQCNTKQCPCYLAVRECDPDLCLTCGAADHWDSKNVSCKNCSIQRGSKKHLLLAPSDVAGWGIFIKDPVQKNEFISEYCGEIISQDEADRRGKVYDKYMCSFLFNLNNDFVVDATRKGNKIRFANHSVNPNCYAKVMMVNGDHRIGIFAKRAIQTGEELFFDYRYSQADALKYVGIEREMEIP

How did the fold change (FC) [1] turn out when Cc1ncsc1-c1ccc([C@H](CC(=O)NCCCCCCNC(=O)COc2nc(N)nc(Nc3cc(S(N)(=O)=O)ccc3N[C@@H](c3cccc4c3OC(F)(F)O4)c3ncccc3Cl)n2)NC(=O)[C@@H]2C[C@@H](O)CN2C(=O)[C@@H](NC(=O)C2(F)CC2)C(C)(C)C)cc1 was run?
Its fold change (FC) is 0.08.

What about the Activity [2] of the same molecule?
The Activity was 70%.

And the Activity [3]?
Its Activity is 77%.

What about the Activity [4] of the same molecule?
Its Activity is “Dose-dependent-effect”.

What about the DC50 [4] of the same molecule?
Its DC50 is 56 nM.

And the fold change (FC) [5]?
The fold change (FC) was 0.36.

What about the fold change (FC) [6] of the same molecule?
Its fold change (FC) is 0.4.

And the fold change (FC) [7]?
Its fold change (FC) is 0.97.

And the fold change (FC) [8]?
Its fold change (FC) is 1.08.

What about the fold change (FC) [9] of the same molecule?
Its fold change (FC) is 1.13.

What about the fold change (FC) [10] of the same molecule?
The fold change (FC) was 0.86.

What about the fold change (FC) [11] of the same molecule?
Its fold change (FC) is 0.15.

What about the fold change (FC) [12] of the same molecule?
Its fold change (FC) is 0.07.

What about the fold change (FC) [13] of the same molecule?
Its fold change (FC) is 0.34.

And the fold change (FC) [14]?
Its fold change (FC) is 0.32.

And the Activity [15]?
Its Activity is “inactive”.

What about the Activity [16] of the same molecule?
The Activity was “Active”.

And the inhibition [17]?
The inhibition was over 95%.

And the inhibition [18]?
The inhibition was “inactive”.

What about the inhibition [19] of the same molecule?
The inhibition was “inactive”.

What about the inhibition [20] of the same molecule?
The inhibition was “inactive”.

And the inhibition [21]?
Its inhibition is “inactive”.

What about the inhibition [22] of the same molecule?
Its inhibition is “inactive”.

What about the inhibition [23] of the same molecule?
Its inhibition is “inactive”.

And the inhibition [24]?
The inhibition was “inactive”.

And the GI50 (MV4-11)?
Its GI50 is 212 nM.

And the Activity (MCF-10A)?
Its Activity is “Non-toxic”.
